How the values were obtained:
Assay type in all cases: in vivo
[1] = system: purple redstem (Ammannia coccinea); experiment: Test E flooded paddy water application; conditions: Flood, 21 days, scale 0 to 100 (0 no effect, 100 complete control)
Excerpt: (§1) Three plastic pots (ca. 16-cm diameter) per rate were partially filled with sterilized Tama silt loam soil comprising a 35:50:15 ratio of sand, silt and clay and 2.6% organic matter. Separate plantings for each of the three pots were as follows. Seeds from the U.S. of ducksalad (Heteranthera limosa), smallflower umbrella sedge (Cyperus difformis) and purple redstem (Ammannia coccinea), were planted into one 16-cm pot for each rate. Seeds from the U.S. of rice flatsedge (Cyperus iria), bearded (brdd.) sprangletop (Leptochloa fusca ssp. fascicularis), one stand of 9 or 10 water seeded rice seedlings (Oryza sativa cv. ‘Japonica-M202’), and one stand of 6 transplanted rice seedlings (Oryza sativa cv. ‘Japonica-M202’) were planted into one 16-cm pot for each rate. Seeds from the U.S. of barnyardgrass (Echinochloa crus-galli), late watergrass (Echinochloa oryzicola), early watergrass (Echinochloa oryzoides) and junglerice (Echinochloa colona) were planted into one 16-cm pot for each rate. Plantings were sequential so that crop and weed species were at the 2.0 to 2.5-leaf stage at time of treatment.
(§2) Potted plants were grown in a greenhouse with day/night temperature settings of 29.5/26.7° C., and supplemental balanced lighting was provided to maintain a 16-hour photoperiod. Test pots were maintained in the greenhouse until test completion.
(§3) At time of treatment, test pots were flooded to 3 cm above the soil surface, treated by application of test compounds directly to the paddy water, and then maintained at that water depth for the duration of the test. Effects of treatments on rice and weeds were visually evaluated by comparison to untreated controls after 21 days. Plant response ratings, summarized in Table E, are based on a scale of 0 to 100 where 0 is no effect and 100 is complete control. A dash (-) response means no test result.

[2] = system: water seeded rice seedlings (Oryza sativa cv. ‘Japonica-M202’); experiment: Test E flooded paddy water application; conditions: Flood, 21 days, scale 0 to 100 (0 no effect, 100 complete control)
Excerpt: as §1, §2, §3

[3] = system: ducksalad (Heteranthera limosa); experiment: Test E flooded paddy water application; conditions: Flood, 21 days, scale 0 to 100 (0 no effect, 100 complete control)
Excerpt: as §1, §2, §3

[4] = system: smallflower umbrella sedge (Cyperus difformis); experiment: Test E flooded paddy water application; conditions: Flood, 21 days, scale 0 to 100 (0 no effect, 100 complete control)
Excerpt: as §1, §2, §3

[5] = system: late watergrass (Echinochloa oryzicola); experiment: Test E flooded paddy water application; conditions: Flood, 21 days, scale 0 to 100 (0 no effect, 100 complete control)
Excerpt: as §1, §2, §3

[6] = system: barnyardgrass (Echinochloa crus-galli); experiment: Test E flooded paddy water application; conditions: Flood, 21 days, scale 0 to 100 (0 no effect, 100 complete control)
Excerpt: as §1, §2, §3

[7] = system: transplanted rice seedlings (Oryza sativa cv. ‘Japonica-M202’); experiment: Test E flooded paddy water application; conditions: Flood, 21 days, scale 0 to 100 (0 no effect, 100 complete control)
Excerpt: as §1, §2, §3

[8] = system: junglerice (Echinochloa colona); experiment: Test E flooded paddy water application; conditions: Flood, 21 days, scale 0 to 100 (0 no effect, 100 complete control)
Excerpt: as §1, §2, §3

[9] = system: rice flatsedge (Cyperus iria); experiment: Test E flooded paddy water application; conditions: Flood, 21 days, scale 0 to 100 (0 no effect, 100 complete control)
Excerpt: as §1, §2, §3

[10] = system: early watergrass (Echinochloa oryzoides); experiment: Test E flooded paddy water application; conditions: Flood, 21 days, scale 0 to 100 (0 no effect, 100 complete control)
Excerpt: as §1, §2, §3

[11] = system: bearded (brdd.) sprangletop (Leptochloa fusca ssp. fascicularis); experiment: Test E flooded paddy water application; conditions: Flood, 21 days, scale 0 to 100 (0 no effect, 100 complete control)
Excerpt: as §1, §2, §3

[12] = system: giant foxtail (Setaria faberi); experiment: Test A pre/postemergence
In short: (§4)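 Soil: loam blended with sand. Formulation: non-phytotoxic solvent mixture with surfactant. Timing: preemergence soil spray plus concurrent postemergence spray (plants 2–10 cm, 1–2 leaves). Readout: visual injury versus untreated controls at ~10 days, 0–100.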

[13] = system: redroot pigweed (Amaranthus retroflexus); experiment: Test A pre/postemergence
In short: as §4

[14] = system: morningglory (Ipomoea spp.); experiment: Test A pre/postemergence
In short: as §4

[15] = system: crabgrass (Digitaria sanguinalis); experiment: Test A pre/postemergence
In short: as §4

[16] = system: barnyardgrass (Echinochloa crus-galli); experiment: Test A pre/postemergence
In short: as §4

[17] = system: velvetleaf (Abutilon theophrasti); experiment: Test A pre/postemergence
In short: as §4

[18] = Postemergence, 125 g ai/ha, 0 to 100 scale (0 no effect, 100 complete control)
[19] = Postemergence, 500 g ai/ha, 0 to 100 scale (0 no effect, 100 complete control)
[20] = Preemergence, 125 g ai/ha, 0 to 100 scale where 0 is no effect and 100 is complete control, approximately ten days
[21] = Preemergence, 500 g ai/ha, 0 to 100 scale where 0 is no effect and 100 is complete control, approximately ten days

CCOC(=O)c1nc(-c2ccc(C)cc2)nc(N)c1Br [Compound 61]
10: Rice, Water Seeded plant response rating ([2]; 250 g ai/ha) | Plant response rating, Foxtail, Giant [12, 21] | Plant response rating, Morningglory [14, 18] | Plant response rating, Barnyardgrass [16, 21]
15: Plant response rating, Morningglory [14, 21]
50: Plant response rating, Pigweed [13, 19] | Plant response rating, Velvetleaf [17, 21]
65: Redstem plant response rating ([1]; 32 g ai/ha) | Barnyardgrass plant response rating ([6]; 500 g ai/ha) | Sprangletop, Brdd. plant response rating ([11]; 250 g ai/ha) | Sprangletop, Brdd. plant response rating ([11]; 500 g ai/ha)
40: Flatsedge, Rice plant response rating ([9]; 125 g ai/ha) | Flatsedge, Rice plant response rating ([9]; 250 g ai/ha)
85: Sedge, Umbrella plant response rating ([4]; 125 g ai/ha)
30: Plant response rating, Pigweed [13, 21] | Plant response rating, Morningglory [14, 19] | Plant response rating, Crabgrass [15, 21]
35: Rice, Water Seeded plant response rating ([2]; 500 g ai/ha) | Sprangletop, Brdd. plant response rating ([11]; 32 g ai/ha) | Sprangletop, Brdd. plant response rating ([11]; 64 g ai/ha) | Plant response rating, Barnyardgrass [16, 18]
20: Sedge, Umbrella plant response rating ([4]; 32 g ai/ha) | Watergrass, Late plant response rating ([5]; 64 g ai/ha) | Watergrass, Late plant response rating ([5]; 125 g ai/ha) | Watergrass, Late plant response rating ([5]; 250 g ai/ha) | Junglerice plant response rating ([8]; 64 g ai/ha) | Junglerice plant response rating ([8]; 125 g ai/ha) | Watergrass, Early plant response rating ([10]; 250 g ai/ha)
100: Redstem plant response rating ([1]; 250 g ai/ha) | Redstem plant response rating ([1]; 500 g ai/ha) | Ducksalad plant response rating ([3]; 32 g ai/ha) | Ducksalad plant response rating ([3]; 64 g ai/ha) | Ducksalad plant response rating ([3]; 125 g ai/ha) | Ducksalad plant response rating ([3]; 250 g ai/ha) | Ducksalad plant response rating ([3]; 500 g ai/ha) | Sedge, Umbrella plant response rating ([4]; 500 g ai/ha) | Plant response rating, Velvetleaf [17, 19]
75: Sedge, Umbrella plant response rating ([4]; 64 g ai/ha)
25: Watergrass, Late plant response rating ([5]; 500 g ai/ha) | Rice, Transplanted plant response rating ([7]; 500 g ai/ha) | Junglerice plant response rating ([8]; 250 g ai/ha) | Junglerice plant response rating ([8]; 500 g ai/ha) | Watergrass, Early plant response rating ([10]; 500 g ai/ha) | Plant response rating, Foxtail, Giant [12, 19] | Plant response rating, Pigweed [13, 18]
5: Plant response rating, Crabgrass [15, 19]
80: Redstem plant response rating ([1]; 64 g ai/ha) | Redstem plant response rating ([1]; 125 g ai/ha)
0: Rice, Water Seeded plant response rating ([2]; 32 g ai/ha) | Rice, Water Seeded plant response rating ([2]; 64 g ai/ha) | Rice, Water Seeded plant response rating ([2]; 125 g ai/ha) | Watergrass, Late plant response rating ([5]; 32 g ai/ha) | Barnyardgrass plant response rating ([6]; 32 g ai/ha) | Barnyardgrass plant response rating ([6]; 64 g ai/ha) | Barnyardgrass plant response rating ([6]; 125 g ai/ha) | Barnyardgrass plant response rating ([6]; 250 g ai/ha) | Rice, Transplanted plant response rating ([7]; 32 g ai/ha) | Rice, Transplanted plant response rating ([7]; 64 g ai/ha) | Rice, Transplanted plant response rating ([7]; 125 g ai/ha) | Rice, Transplanted plant response rating ([7]; 250 g ai/ha) | Junglerice plant response rating ([8]; 32 g ai/ha) | Flatsedge, Rice plant response rating ([9]; 32 g ai/ha) | Flatsedge, Rice plant response rating ([9]; 64 g ai/ha) | Watergrass, Early plant response rating ([10]; 32 g ai/ha) | Watergrass, Early plant response rating ([10]; 64 g ai/ha) | Watergrass, Early plant response rating ([10]; 125 g ai/ha) | Plant response rating, Foxtail, Giant [12, 18] | Plant response rating, Foxtail, Giant [12, 20] | Plant response rating, Pigweed [13, 20] | Plant response rating, Morningglory [14, 20] | Plant response rating, Crabgrass [15, 18] | Plant response rating, Crabgrass [15, 20] | Plant response rating, Barnyardgrass [16, 20] | Plant response rating, Velvetleaf [17, 20]
70: Plant response rating, Velvetleaf [17, 18]
95: Sedge, Umbrella plant response rating ([4]; 250 g ai/ha) | Flatsedge, Rice plant response rating ([9]; 500 g ai/ha)
60: Sprangletop, Brdd. plant response rating ([11]; 125 g ai/ha) | Plant response rating, Barnyardgrass [16, 19]
